Laboratory results as given in US20220000976A1 (priority 2018, published 2022).
Structures can show the parent of a compound that is named as a salt.

Key:
[1] = test system: ROR-γt+ Treg cells; conditions: mouse, in vivo
[2] = test system: Il4ra^F709 mice; assay: Food allergy model: OVA/SEB oral sensitization and OVA challenge of treated Il4ra^F709 mice (core body temperature); format: in vivo, mouse; conditions: 100 mg/kg i.p. once weekly, OVA/SEB 8 weeks

| SMILES | ROR-γt+ staining in CD4+Foxp3+ Treg cells vs sham treatment [1] | GATA3+ Helios+ gut Treg cells ([1]; ip, 100 mg/kg) | GATA3+ Helios− gut Treg cells ([1]; ip, 100 mg/kg) | GATA3+ gut Treg cells ([1]; ip, 100 mg/kg) | Gut ROR-γt+ Treg cells (expansion) ([1]; ip, 100 mg/kg) | ROR-γt+ Helios+ gut Treg cells ([1]; ip, 100 mg/kg) | ROR-γt+ Helios− gut Treg cells ([1]; ip, 100 mg/kg) | ROR-γt+ gut Treg cells ([1]; ip, 100 mg/kg) | Protection against food allergy ([2]; OVA challenge) | Core body temperature changes compared to control ([2]; after OVA challenge) |
| --- | --- | --- | --- | --- | --- | --- | --- | --- | --- | --- |
| O=Cc1c[nH]c2ccccc12 [CA, indol-3-carboxaldehyde] | statistically significant increase |  |  |  |  |  |  |  |  |  |
| O=S(=O)(O)Oc1c[nH]c2ccccc12 [I3S, Indoxyl sulfate] |  | statistically significant decrease | statistically significant decrease | statistically significant decrease | expanded gut ROR-γt^+ Treg cells | statistically significant increase | statistically significant increase | statistically significant increase | protected against food allergy | statistically significant increase |
